Bridge positions count the residues as written; N and C are the ends. Square brackets hold non-standard residues; d marks the D form. Peptide text beside a SMILES is read from it. dPhe(4-F) = N[C@H](Cc1ccc(F)cc1)C(=O)O; Pen = CC(C)(S)[C@H](N)C(=O)O; hCys = N[C@@H](CCS)C(=O)O
Tests used:
MC1R = biological target: T1, MC1R (Homo sapiens, UniProt Q01726); assay: cAMP assay (EC50), MC1R; assay type: cell-based; conditions: EC50(MC1R)/EC50(MC4R)
T1 construct: host or cells: CHO-K1 (ECL assay)
Method: (§1) Stimulation of intracellular cyclic AMP (cAMP) levels by the peptides is determined in a dose dependent manner by an electrochemiluminescence (ECL) assay (Meso Scale Discovery, Gaithersburg, MD, USA; referred to hereinafter as “MSD”). Briefly, the CHO-K1 cells stably expressing the hMC receptor subtypes are suspended in RMPI 1640® assay buffer (RMPI 1640 buffer contains 0.5 mM IBMX, and 0.2% protein cocktail (MSD blocker A)). About 7,000 cells/well of the transgenic CHO-K1 cells stably expressing hMC receptor subtypes 1, 3, 4 or 5 are dispensed in 384-well Multi-Array plates (MSD) containing integrated carbon electrodes and coated with anti-cAMP antibody. Increasing concentrations of the test compounds are added and the cells are incubated for approximately 40 minutes at 37° C. A cell lysis buffer (HEPES-buffered saline solution with MgCl2 and Triton X-100® at pH 7.3) containing 0.2% protein cocktail and 2.5 nM TAG™ ruthenium-labeled cAMP (MSD) is added and the cells are incubated for approximately 90 minutes at room temperature. At the end of the second incubation period, the read buffer (Tris-buffered solution containing an ECL co-reactant and Triton X-100 at pH 7.8) is added and the cAMP levels in the cell lysates are immediately determined by ECL detection with a Sector Imager 6000 Reader® (MSD). Data are analyzed using a computer-assisted non-linear regression analysis (XL fit; IDBS) and reported as either an EC50 value.
(§2) Human MC4-R transfected cells are grown to confluence in 96 well plates (plating approximately 250,000 cells per well). The cells are treated in triplicate sets with 0.2 mM isobutylmethylxanthine (IBMX) and graded concentrations of the peptide or alternatively the peptide in the presence of 20 nM NDP-MSH. Cells similarly treated but with only 20 nM NDP-MSH serve as positive controls in a volume of 200 μL. A buffer blank serving as a negative control is also included. After incubation of one hour at 37° C., the cells are lysed by the addition of 50 μL of a cell lysis buffer. Total cAMP accumulated in 250 μL of this incubation medium is quantitated using a commercially available low pH cAMP assay kit (Amersham BioSciences) as per procedure specified by the kit supplier. […] The data for agonist is plotted and curve fitted to determine the EC50 value. A peptide showing accumulation in the same range as the negative control (buffer blank in the absence of alpha-MSH) is ineffective at the test concentration. A peptide showing attenuated accumulation is considered to be an antagonist if there is inhibition in cAMP when alpha-MSH is also present in the assay. Similar assay can be performed with hMC-1R, hMC-3R, and hMC-5R cells.
(§3) A chemiluminescence readout system that uses an enzyme fragment complementation (EFC) system with β-galactosidase (β-Gal) as the functional reporter system was used. This assay system for various melanocortin receptor systems is commercially available (cAMP Hunter GPCR assay system, Discoverx Corp, Fremont, CA). This assay utilizes the β-Gal enzyme that is split into two complementary portions; EA for Enzyme Acceptor and ED for Enzyme Donor. In the assay, the ED portion fused to cAMP is made to compete with cAMP generated by cells for binding to a cAMP-specific antibody. The EA is then added to form active β-Gal with any unbound ED-cAMP.
(§4) Briefly, 10000 cells per well are plated overnight and each well (cells incubated with 10 μl assay buffer) is then incubated with 4× serial concentration of the test compound in the cell assay buffer (5 μL) and cAMP antibody reagent (5 μL) for 30 min at 37° C. The cell lysis buffer (20 μL) containing ED-cAMP coupled enzyme fragment and the reporter substrate (Emerald II-Galacton Star, 5:1) is then added and incubated for 60 min at room temperature. Next, 20 μL of EA β-Gal fragment reagent is added.

MC3R = biological target: T2, MC3R (Homo sapiens, UniProt P41968); assay: cAMP assay (EC50), MC3R; assay type: cell-based; conditions: EC50(MC3R)/EC50(MC4R)
T2 construct: host or cells: CHO-K1 (ECL assay)
Method: as §1, §2, §3, §4

MC5R = biological target: T3, MC5R (Homo sapiens, UniProt P33032); assay: cAMP assay (EC50), MC5R; assay type: cell-based; conditions: for Ratios of EC50 values MC5/4: EC50(MC5R)/EC50(MC4R)
T3 construct: host or cells: CHO-K1 (ECL assay)
Method: Stimulation of intracellular cyclic AMP (cAMP) levels by the peptides is determined in a dose dependent manner by an electrochemiluminescence (ECL) assay (Meso Scale Discovery, Gaithersburg, MD, USA; referred to hereinafter as “MSD”). Briefly, the CHO-K1 cells stably expressing the hMC receptor subtypes are suspended in RMPI 1640® assay buffer (RMPI 1640 buffer contains 0.5 mM IBMX, and 0.2% protein cocktail (MSD blocker A)). About 7,000 cells/well of the transgenic CHO-K1 cells stably expressing hMC receptor subtypes 1, 3, 4 or 5 are dispensed in 384-well Multi-Array plates (MSD) containing integrated carbon electrodes and coated with anti-cAMP antibody. Increasing concentrations of the test compounds are added and the cells are incubated for approximately 40 minutes at 37° C. A cell lysis buffer (HEPES-buffered saline solution with MgCl2 and Triton X-100® at pH 7.3) containing 0.2% protein cocktail and 2.5 nM TAG™ ruthenium-labeled cAMP (MSD) is added and the cells are incubated for approximately 90 minutes at room temperature. At the end of the second incubation period, the read buffer (Tris-buffered solution containing an ECL co-reactant and Triton X-100 at pH 7.8) is added and the cAMP levels in the cell lysates are immediately determined by ECL detection with a Sector Imager 6000 Reader® (MSD). Data are analyzed using a computer-assisted non-linear regression analysis (XL fit; IDBS) and reported as either an EC50 value. […]
as §3, with “ED-cAMP. This active enzyme then converts a chemiluminescent substrate to generate an output signal that is recorded on a standard microplate reader.” for “ED-cAMP.”
as §4

[1] = Pharmacokinetics of formulations after single subcutaneous bolus in Cynomolgus monkeys; assay type: in vivo; conditions: cynomolgus monkey, plasma, sc, 0.5 mg/kg body weight
Method: A group of Cynomolgus monkeys (average body weight range of 3 to 7 kg) were randomized into a group of 6 for each formulation described above and for Formulation 3A. Each monkey in the cohort was subcutaneously administered in the scapular area with a single bolus dose of a formulation calculated at 0.5 mg/kg body weight. Blood samples were taken at various time points staring at 30 minutes post dosing to 36 or 48 hours. The plasma was harvested and peptide drug concentration assays using LC-MS/MS technique. The pharmacokinetic data is presented in Table 3 below, and the pharmacokinetic profile is set forth graphically in FIG. 1, FIG. 2, and FIG. 3.

T3 sequence (P33032 whole entry): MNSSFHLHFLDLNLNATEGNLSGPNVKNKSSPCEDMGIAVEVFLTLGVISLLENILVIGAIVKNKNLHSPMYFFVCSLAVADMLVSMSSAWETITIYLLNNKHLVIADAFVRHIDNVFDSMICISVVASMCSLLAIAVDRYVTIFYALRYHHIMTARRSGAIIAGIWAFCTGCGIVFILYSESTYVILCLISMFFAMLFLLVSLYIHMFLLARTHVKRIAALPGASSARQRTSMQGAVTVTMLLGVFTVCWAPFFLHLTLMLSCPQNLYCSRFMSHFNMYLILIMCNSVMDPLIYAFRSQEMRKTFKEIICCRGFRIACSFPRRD
T2 sequence (P41968 whole entry): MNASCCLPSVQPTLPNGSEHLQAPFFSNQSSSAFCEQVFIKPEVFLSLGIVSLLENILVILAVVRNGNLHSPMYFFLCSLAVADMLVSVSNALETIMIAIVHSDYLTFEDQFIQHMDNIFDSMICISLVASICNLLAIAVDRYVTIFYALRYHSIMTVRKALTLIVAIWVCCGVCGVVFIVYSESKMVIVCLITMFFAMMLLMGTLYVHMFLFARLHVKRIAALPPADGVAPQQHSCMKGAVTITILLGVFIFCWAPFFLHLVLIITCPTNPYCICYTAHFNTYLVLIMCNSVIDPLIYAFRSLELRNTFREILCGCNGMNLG
T1 sequence (Q01726 whole entry): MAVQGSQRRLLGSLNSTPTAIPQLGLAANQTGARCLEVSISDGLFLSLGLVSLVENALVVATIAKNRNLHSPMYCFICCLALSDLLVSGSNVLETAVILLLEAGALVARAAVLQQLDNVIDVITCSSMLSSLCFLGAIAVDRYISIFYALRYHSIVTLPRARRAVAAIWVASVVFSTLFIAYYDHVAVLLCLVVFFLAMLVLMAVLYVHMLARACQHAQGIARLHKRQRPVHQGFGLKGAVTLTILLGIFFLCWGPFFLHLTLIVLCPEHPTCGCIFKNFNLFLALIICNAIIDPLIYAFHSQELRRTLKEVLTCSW

SMILES | Ratios of EC50 values MC1/4 (MC1R) | Ratios of EC50 values MC3/4 (MC3R) | Ratios of EC50 values MC5/4 (MC5R) | Cmax [1] [ng/mL] | Tmax [1] [min] | EC50 (MC5R) [nM]
CC(=O)N[C@@H](CCCNC(=N)N)C(=O)N[C@H]1CSSC[C@@H](C(N)=O)NC(=O)[C@H](Cc2c[nH]c3ccccc23)NC(=O)[C@H](CCCNC(=N)N)NC(=O)[C@@H](Cc2ccc(F)cc2)NC(=O)[C@@H]2CCCN2C(=O)[C@@H](C)NC1=O [Compound 14, Ac-Arg-cyclo[Cys-D-Ala-Pro-D-Phe(p-F)-Arg-Trp-Cys]-NH2] (Ac-RC[dA]P[dPhe(4-F)]RWC-NH2; disulfide 2-8) | 7 | >400 | 12 | – | – | –
CC(=O)N[C@@H](CCCNC(=N)N)C(=O)N[C@H]1CCSSC[C@@H](C(N)=O)NC(=O)[C@H](Cc2c[nH]c3ccccc23)NC(=O)[C@H](CCCNC(=N)N)NC(=O)[C@@H](Cc2ccccc2)NC(=O)[C@H](C)NC1=O [Compound 15, Ac-Arg-cyclo[hCys-Ala-D-Phe-Arg-Trp-Cys]-NH2] (Ac-R[hCys]A[dF]RWC-NH2; disulfide 2-7) | 15 | 3.8 | 161 | – | – | –
CC(=O)N[C@@H](CCCNC(=N)N)C(=O)N[C@H]1CCSSC[C@@H](C(N)=O)NC(=O)[C@H](Cc2c[nH]c3ccccc23)NC(=O)[C@H](CCCNC(=N)N)NC(=O)[C@@H](Cc2ccccc2)NC(=O)[C@@H](C)NC1=O [Compound 16, Ac-Arg-cyclo[hCys-D-Ala-D-Phe-Arg-Trp-Cys]-NH2] (Ac-R[hCys][dA][dF]RWC-NH2; disulfide 2-7) | 120 | 420 | >1338 | – | – | –
CC(=O)N[C@@H](CCCNC(=N)N)C(=O)N[C@H]1CCSSC(C)(C)[C@@H](C(N)=O)NC(=O)[C@H](Cc2c[nH]c3ccccc23)NC(=O)[C@H](CCCNC(=N)N)NC(=O)[C@@H](Cc2ccccc2)NC(=O)[C@@H](C)NC1=O [Compound 17, Ac-Arg-cyclo[hCys-D-Ala-D-Phe-Arg-Trp-Pen]-NH2] (Ac-R[hCys][dA][dF]RW[Pen]-NH2; disulfide 2-7) | 15 | 17 | 159 | – | – | –
CC(=O)N[C@@H](CCC(=O)O)C(=O)N[C@H]1CSSC[C@@H](C(N)=O)NC(=O)[C@H](Cc2c[nH]c3ccccc23)NC(=O)[C@H](CCCNC(=N)N)NC(=O)[C@@H](Cc2ccccc2)NC(=O)[C@H](Cc2c[nH]cn2)NC(=O)[C@H](C)NC1=O [Compound 22, Ac-Glu-cyclo[Cys-Ala-His-D-Phe-Arg-Trp-Cys]-NH2] (Ac-ECAH[dF]RWC-NH2; disulfide 2-8) | >3 | >20 | >2563 | – | – | –
CC(=O)N[C@@H](CCCNC(=N)N)C(=O)N[C@H]1CSSC[C@@H](C(N)=O)NC(=O)[C@H](Cc2c[nH]c3ccccc23)NC(=O)[C@H](CCCNC(=N)N)NC(=O)[C@@H](Cc2ccccc2)NC(=O)[C@H](Cc2c[nH]cn2)NC(=O)[C@@H](C)NC1=O [Peptide 1] | – | – | – | 1100 | 30 | 1600
